For eleven compounds, TGI results are on record in PubChem BioAssay (NCI).

Molecules are shown by their SMILES.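 Grown in 96-well plates, cells were treated for 48 hours with each compound at five concentrations. Insufficient inhibition: endpoint recorded as highest concentration tested. The concentration for full growth arrest is given as TGI.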 Where only a bound is given, the exact number is not on record here.

Test systems include SNB-19 CNS; NCI/ADR-RES ovarian; ACHN renal; BT-549 breast; HOP-92 NSCLC; LOX IMVI melanoma; A498 renal; DU-145 prostate; OVCAR-4 ovarian; A549 NSCLC; MDA-N; HCT-116 colon; HCT-15 colon; K-562 leukemia; SK-MEL-5 melanoma; COLO 205 colon; NCI-H226 lung; HOP-62 NSCLC; UACC-62 melanoma; T-47D breast.
What all share (test): NCI anticancer screen, dose series, 48 h

For `NS(=O)(=O)c1cc2c(cc1Cl)NC(CCC(=O)O)=NS2(=O)=O`, the TGI with SNB-19 CNS, in the test with NCI/ADR-RES ovarian, in the test with ACHN renal, in the test on BT-549 breast, in the test on HOP-92 NSCLC and in the test on LOX IMVI melanoma was above 100 µM throughout. Moreover, the TGI in the test with A498 renal, in the test with DU-145 prostate, in the test on OVCAR-4 ovarian, in the test on A549 NSCLC, in the test with MDA-N and with HCT-116 colon was above 100 µM in each case. Besides, the TGI with HCT-15 colon, in the test with K-562 leukemia, in the test on SK-MEL-5 melanoma, in the test with COLO 205 colon, in the test on NCI-H226 lung and with HOP-62 NSCLC was above 100 µM each time. Also, the TGI with UACC-62 melanoma and in the test with T-47D breast was above 100 µM each time.
For the compound `CC(=O)Nc1nc(C#N)[nH]c1C#N`, the TGI with SNB-19 CNS, in the test with NCI/ADR-RES ovarian, in the test on ACHN renal, in the test on BT-549 breast, in the test on HOP-92 NSCLC and in the test with LOX IMVI melanoma was above 100 µM throughout. Besides, the TGI in the test with A498 renal, with DU-145 prostate, with OVCAR-4 ovarian, with A549 NSCLC, with MDA-N and with HCT-116 colon was above 100 µM in each case. Moreover, the TGI in the test on HCT-15 colon, in the test with K-562 leukemia, in the test on SK-MEL-5 melanoma, in the test with COLO 205 colon, with NCI-H226 lung and in the test with HOP-62 NSCLC was above 100 µM throughout. Besides, the TGI in the test on UACC-62 melanoma and with T-47D breast was above 100 µM each time.
`CC1OC(OC2C(OC(=O)[C@]34CCC(C)(C)C[C@H]3C3=CC[C@@H]5[C@@]6(C)CC[C@H](OC7OC(C(=O)O)C(O)C(O)C7O)C(C)(C)[C@@H]6CC[C@@]5(C)[C@]3(C)C[C@H]4O)OCC(O)C2O)C(O)C(OC2OCC(O)(CO)C2O)C1OC1OCC(O)C(O)C1O` (stereo partly specified): the TGI came to 23.8 µM in the test on SNB-19 CNS; 27.9 µM in the test with NCI/ADR-RES ovarian; 17.4 µM in the test on ACHN renal; 17.3 µM in the test with BT-549 breast; 26.7 µM in the test on HOP-92 NSCLC; 26.6 µM in the test on LOX IMVI melanoma. In addition, the TGI is 3.47 µM with A498 renal; 25.8 µM with DU-145 prostate; 22.7 µM in the test with OVCAR-4 ovarian; 14.8 µM in the test with A549 NSCLC; 16 µM in the test with MDA-N; 19.8 µM in the test with HCT-116 colon. Also, the TGI turned out to be 30 µM in the test on HCT-15 colon; 35.8 µM with K-562 leukemia; 28.1 µM in the test on SK-MEL-5 melanoma; 3.36 µM with COLO 205 colon; 28.3 µM with NCI-H226 lung; 32.4 µM with HOP-62 NSCLC. The TGI was 31 µM with UACC-62 melanoma and 26.4 µM in the test on T-47D breast.
For `Cc1cn(C2CC(O)C(CO)O2)c(=O)[nH]c1=O` (stereo unspecified), the TGI in the test on SNB-19 CNS was above 2850 µM; with NCI/ADR-RES ovarian, above 5000 µM; in the test on ACHN renal it was above 5000 µM; with BT-549 breast, above 5000 µM; in the test with HOP-92 NSCLC, above 4830 µM; with LOX IMVI melanoma, above 5000 µM. Also, the TGI in the test with A498 renal is above 5000 µM; in the test on DU-145 prostate, above 5000 µM; with OVCAR-4 ovarian it was above 4640 µM; with A549 NSCLC it was 4450 µM; in the test on MDA-N, above 5000 µM; in the test with HCT-116 colon it was above 4240 µM. The TGI in the test with HCT-15 colon is above 5000 µM; with K-562 leukemia, above 5000 µM; in the test on SK-MEL-5 melanoma, above 5000 µM; with COLO 205 colon, above 5000 µM; in the test on NCI-H226 lung, above 5000 µM; with HOP-62 NSCLC it was 4630 µM. Besides, the TGI is 3680 µM in the test on UACC-62 melanoma and above 5000 µM in the test on T-47D breast.
For the compound `CN1CSC(=S)N(c2c3ccccc3nc3ccc(Br)cc23)C1`, the TGI with SNB-19 CNS is 26 µM; in the test on NCI/ADR-RES ovarian it was 30.9 µM; in the test on ACHN renal, 19.5 µM; in the test on BT-549 breast it was 32.2 µM; in the test on HOP-92 NSCLC it was 32.7 µM; in the test with LOX IMVI melanoma, above 53.4 µM. In addition, the TGI was determined as 27 µM in the test on A498 renal; 22 µM with DU-145 prostate; 25.7 µM in the test on OVCAR-4 ovarian; 21.6 µM in the test with A549 NSCLC; 25.3 µM in the test on MDA-N; 15.7 µM with HCT-116 colon. The TGI in the test on HCT-15 colon was 20.4 µM; in the test on K-562 leukemia, above 32.4 µM; in the test on SK-MEL-5 melanoma it was 26.2 µM; in the test on COLO 205 colon, 20 µM; in the test with NCI-H226 lung, 37 µM; in the test with HOP-62 NSCLC, 51 µM. The TGI in the test with UACC-62 melanoma is 27.4 µM; with T-47D breast, 38.3 µM.
In the case of `CC1(C)CCCC2OC2CCC(C)(C)C1=O` (stereo unspecified), the TGI with SNB-19 CNS, in the test with NCI/ADR-RES ovarian, in the test with ACHN renal, in the test with BT-549 breast, in the test with HOP-92 NSCLC and with LOX IMVI melanoma was above 100 µM throughout. The TGI with A498 renal, in the test on DU-145 prostate, in the test on OVCAR-4 ovarian, in the test on A549 NSCLC, in the test with MDA-N and with HCT-116 colon was above 100 µM in each case. The TGI in the test on HCT-15 colon, in the test with K-562 leukemia, with SK-MEL-5 melanoma, with COLO 205 colon, in the test with NCI-H226 lung and in the test with HOP-62 NSCLC was above 100 µM in each case. In addition, the TGI with UACC-62 melanoma and with T-47D breast was above 100 µM in each case.
Turning to `CCOC(=O)c1ccc(NCC#CCN2CCOCC2)cc1`, the TGI in the test with SNB-19 CNS, in the test on NCI/ADR-RES ovarian, with ACHN renal, in the test on BT-549 breast, in the test on HOP-92 NSCLC and in the test on LOX IMVI melanoma was above 100 µM in each case. Besides, the TGI with A498 renal, in the test on DU-145 prostate, with OVCAR-4 ovarian, in the test with A549 NSCLC, with MDA-N and in the test with HCT-116 colon was above 100 µM throughout. Besides, the TGI in the test on HCT-15 colon, in the test with K-562 leukemia, with SK-MEL-5 melanoma, in the test with COLO 205 colon, in the test on NCI-H226 lung and with HOP-62 NSCLC was above 100 µM throughout. Further, the TGI in the test with UACC-62 melanoma and in the test with T-47D breast was above 100 µM throughout.
On to `COc1cc(NS(C)(=O)=O)ccc1Nc1cc(C)[nH]c2ccc3nccc3c12`, for which the TGI with SNB-19 CNS, with NCI/ADR-RES ovarian, in the test on ACHN renal, in the test on BT-549 breast, in the test with HOP-92 NSCLC and in the test on LOX IMVI melanoma was above 100 µM in each case. Also, the TGI in the test on A498 renal, in the test on DU-145 prostate, with OVCAR-4 ovarian, with A549 NSCLC, in the test on MDA-N and in the test with HCT-116 colon was above 100 µM each time. In addition, the TGI in the test with HCT-15 colon, in the test on K-562 leukemia, in the test with SK-MEL-5 melanoma, in the test with COLO 205 colon, in the test with NCI-H226 lung and in the test on HOP-62 NSCLC was above 100 µM each time. In addition, the TGI with UACC-62 melanoma and with T-47D breast was above 100 µM throughout.
For `CCOC(=O)c1cn2c(nc1=O)N[C@H]1CCCC[C@@H]12`, the TGI in the test with SNB-19 CNS, in the test on NCI/ADR-RES ovarian, in the test with ACHN renal, with BT-549 breast, in the test with HOP-92 NSCLC and with LOX IMVI melanoma was above 100 µM each time. Also, the TGI with A498 renal, in the test on DU-145 prostate, with OVCAR-4 ovarian, in the test on A549 NSCLC, with MDA-N and in the test with HCT-116 colon was above 100 µM each time. For the same compound, the TGI in the test with HCT-15 colon, in the test on K-562 leukemia, in the test on SK-MEL-5 melanoma, in the test on COLO 205 colon, with NCI-H226 lung and in the test with UACC-62 melanoma was above 100 µM each time. The TGI in the test with T-47D breast is above 100 µM.
`COc1ccc2c(c1)OCC1Cc3ccccc3OC21` (stereo unspecified): the TGI in the test on NCI/ADR-RES ovarian was above 100 µM; in the test with ACHN renal, above 100 µM; in the test with BT-549 breast it was above 100 µM; in the test with HOP-92 NSCLC it was above 100 µM; with LOX IMVI melanoma, above 100 µM; in the test with A498 renal it was above 10 µM. The TGI is above 100 µM in the test on DU-145 prostate; above 100 µM in the test on A549 NSCLC; above 10 µM in the test on MDA-N; above 100 µM with HCT-116 colon; above 100 µM with HCT-15 colon; above 100 µM in the test on K-562 leukemia. Also, the TGI in the test with SK-MEL-5 melanoma is above 10 µM; with COLO 205 colon it was above 100 µM; with NCI-H226 lung, above 100 µM; in the test on HOP-62 NSCLC, above 100 µM; with UACC-62 melanoma, above 100 µM; in the test on T-47D breast, above 100 µM.
Take `N#CC12C(=O)N=C(N)C1(C#N)C(c1ccco1)NC1=C2CCCC1` (stereo unspecified): the TGI with SNB-19 CNS, in the test with NCI/ADR-RES ovarian, in the test with ACHN renal, in the test with BT-549 breast, in the test on HOP-92 NSCLC and with LOX IMVI melanoma was above 100 µM each time. Moreover, the TGI with A498 renal, with DU-145 prostate, in the test with OVCAR-4 ovarian, with A549 NSCLC, in the test on MDA-N and in the test with HCT-116 colon was above 100 µM each time. Besides, the TGI in the test on HCT-15 colon, in the test with SK-MEL-5 melanoma, in the test with COLO 205 colon, in the test with NCI-H226 lung, with HOP-62 NSCLC and in the test with UACC-62 melanoma was above 100 µM throughout. Besides, in the test with T-47D breast, the TGI was above 100 µM.
